Test results from patent publication US20170002393A1, “COMPOSITIONS AND METHODS FOR ANTIBODY PRODUCTION” (IMMUNOGEN, INC., priority 2013, published 2017).
Values after ≈ are worked out from the molar mass of the structure shown. Values belong to the compound of their own block, whether it stands above or below them.

Legend:
physchem = conditions: thermodynamic from solid
humanized FOLR1 IgG1 = assay: Antibody fragmentation in HCCF with 20% (v/v) microfluidized CHO cells (non-reducing SDS-Protein Lab Chip); format: biochemical; conditions: 1 mM of each additive, 6 h; no additive control 78%
[1] = test system: recombinant humanized IgG1 antibody; assay: Antibody fragmentation in HCCF kept under nitrogen, air or oxygen with or without CDME (non-reducing SDS-Protein Lab Chip); format: biochemical
Experimental: A CHO cell culture producing recombinant humanized IgG1 antibody was subjected to centrifugation and the resulting harvest cell culture fluid (HCCF) was frozen at −80° C. […] At various time points, samples were quenched with N-ethylmaleimide (NEM), purified using immobilized Protein A, and analyzed for fragments using non-reducing SDS-Protein Lab Chip electrophoresis. […] In contrast, the sample overlayed with air became less fragmented with time, reaching a plateau of about 25% fragmentation at 20 hours.

[2] = 50 mM potassium phosphate buffer, pH adjusted to 7.1
[3] = test system: Humanized anti-folate receptor 1 (FOLR1) IgG1; assay: Thiol per antibody (DTNB/Ellman's) after incubating immobilized antibody with damaged CHO cell supernatant; format: biochemical; conditions: 0.05 mM agent, 2.2 hours; antibody eluted from Protein A bead, neutralized to pH 7
Experimental: For all of the examples described below, cell damage was simulated by multiple freeze-thaw cycles of cells, by addition of RIPA buffer (50 mM Tris-HCl, pH 7.4, 1% NP-40, 0.5% sodium deoxycholate, 0.1% sodium dodecylsulfate), or by using microfluidizer. This damaged cell supernatant or lysate was then incubated with a buffered solution containing antibody with or without the anti-reduction agent being tested, following which the extent of the antibody-disulfide reduction was measured using Ellman's assay for thiol (P. W. Riddles, R. L. Blakeley, and B. Zerner, Methods Enzymol., 91, 49-60, 1983) or by non-reducing SDS protein LabChip analysis. The total thiol level present in the mixture of damaged cell supernatant/lysate was measured initially. […]
The concentration of thiol in the suspension of damaged CHO cells was measured as 4 mM using DTNB ((5,5′-dithiobis(2-nitrobenzoic acid); Ellman's reagent). Humanized anti-folate receptor 1 (FOLR1) IgG1 (1 mg) was immobilized on 0.05 ml of Protein A bead (RepliGen) and then treated with pre-mixed 0.5 ml PBS and 0.1 ml damaged CHO cell supernatant. The concentration of thiol in this mixture was 0.67 mM. […]

solubility (physchem; pH 7, aqueous buffer): > 100 mM | solubility (physchem; water): ≥ 1000 mM
Structure (SMILES): CCOC(=O)[C@@H](N)CSSC[C@H](N)C(=O)OCC [CDEE, L-cystine diethyl ester]

Structure (SMILES): O=C1c2ccccc2C(=O)c2cc(S(=O)(=O)O)ccc21 [AQS, anthraquinone-2-sulfonic acid]
fragmentation compared to no additive control (humanized FOLR1 IgG1): much lower fragmentations

concentration dissolved in buffer [2]: ≥ 5000 µM
Structure (SMILES): COC(=O)[C@@H](N)CSSC[C@H](N)C(=O)OC [CDME, L-cystine dimethyl ester]
fragmentation compared to no additive control (humanized FOLR1 IgG1): much lower fragmentations | time up to which the antibody was protected from reduction ([1]; 1 mM CDME with nitrogen): up to 20 hours | time up to which the antibody was protected from reduction ([1]; 2 mM CDME with nitrogen): ≤ 45 h | fragmentation with air overlay plus CDME versus air alone ([1]; ~1 mM CDME with air overlay, up to 72 hours): lowered the fragmentation further

Structure (SMILES): O=O [oxygen]
protection against fragmentation ([1]; sparging with oxygen at various percentages of dissolved O2): showed protection against fragmentation

concentration dissolved in buffer [2]: less than 5 mM
Structure (SMILES): Cl.Cl.N[C@@H](CSSC[C@H](N)C(=O)O)C(=O)O [L-cystine dihydrochloride, reference compound]

Structure (SMILES): CN(C)c1ccc2nc3ccc(N(C)C)cc3[s+]c2c1 [methylene blue, Methylene blue]
thiol per antibody of eluted, neutralized antibody [3]: 0.002 thiol per antibody

solubility (physchem; water): ~0.5 mM (≈ 0.12 mg/mL)
Structure (SMILES): N[C@@H](CSSC[C@H](N)C(=O)O)C(=O)O [L-cystine, reference compound]
